Experimental data from patent US20250282799A1, “SUBSTITUTED PYRIDO[4,3-d]PYRIMIDINES AS KRAS MODULATORS” (Alterome Therapeutics, Inc., priority 2023, published 2025).

System: KRAS G12V dependent lung adenocarcinoma cell line, NCI-H441
Experiment: Cellular pERK (Thr202/Tyr204) FRET/HTRF assay
Type: cell-based
Details: Homo sapiens, NCI-H441, cellular pERK (Thr202/Tyr204) HTRF, NCI-H441 cells
Outline: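 NCI-H441, overnight plating → cpd 1 hr, 37 °C/5% CO2; DMSO neg ctrl. Lyse (phosphatase inhibitors), add donor/acceptor Abs, RT incubation, HTRF read. IC50 by curve fit.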

Row | IC50 | Compound
1 | 500 to 10000 nM | [2H]C([2H])(Oc1nc(N2CCOC[C@H]3[C@H](F)[C@H]32)c2cc(F)c(-c3cc(N)cc(C4CC4)c3C(F)(F)F)c(F)c2n1)[C@@]12CCCN1C[C@H](F)C2 [Example 163, 3-cyclopropyl-5-(6,8-difluoro-4-((1S,7S,8S)-8-fluoro-5-oxa-2-azabicyclo[5.1.0]octan-2-yl)-2-(((2R,7aS)-2-fluorotetrahydro-1H-pyrrolizin-7a(5H)-yl)methoxy-d2)quinazolin-7-yl)-4-(trifluoromethyl)aniline]
2 | < 50 nM | [2H]C([2H])([2H])Oc1c(F)cc(F)c2cc(N)cc(-c3ncc4c(N5CCCC[C@H]6[C@H](F)[C@H]65)nc(OC([2H])([2H])[C@@]56CCCN5C[C@H](F)C6)nc4c3F)c12 [Example 141, 6,8-difluoro-4-(8-fluoro-4-((1S,7R,8S)-8-fluoro-2-azabicyclo[5.1.0]octan-2-yl)-2-(((2R,7aS)-2-fluorotetrahydro-1H-pyrrolizin-7a(5H)-yl)methoxy-d2)pyrido[4,3-d]pyrimidin-7-yl)-5-(methoxy-d3)naphthalen-2-amine]
3 | 500 to 10000 nM | Cc1c(F)c(N)cc(-c2ncc3c(N4CCCC[C@@H]5[C@@H](F)[C@@H]54)nc(OC[C@@]45CCCN4C/C(=C/F)C5)nc3c2F)c1C(F)(F)F [Example 397, 2-fluoro-5-(8-fluoro-4-((1R,7S,8R)-8-fluoro-2-azabicyclo[5.1.0]octan-2-yl)-2-(((S,E)-2-(fluoromethylene)tetrahydro-1H-pyrrolizin-7a(5H)-yl)methoxy)pyrido[4,3-d]pyrimidin-7-yl)-3-methyl-4-(trifluoromethyl)aniline]
4 | < 50 nM | [2H]C([2H])(Oc1nc(N2CCOC[C@H]3[C@H](F)[C@H]32)c2cnc(-c3nc(N)cc4ccc(F)c(C#C)c34)c(F)c2n1)[C@@]12CCCN1C[C@H](F)C2 [Example 154]
5 | < 50 nM | C#Cc1c(F)ccc2cc(N)cc(-c3ncc4c(N5CCCC[C@H]6[C@H](F)[C@H]65)nc(OC[C@]56C/C(=C\F)CN5CCC65CC5)nc4c3F)c12 [Example 403, 5-Ethynyl-6-fluoro-4-(8-fluoro-4-((1S,7R,8S)-8-fluoro-2-azabicyclo[5.1.0]octan-2-yl)-2-(((R,E)-6′-(fluoromethylene)tetrahydrospiro[cyclopropane-1,1′-pyrrolizin]-7a′(5′H)-yl)methoxy)pyrido[4,3-d]pyrimidin-7-yl)naphthalen-2-amine]
6 | < 50 nM | [2H]C([2H])(F)Oc1c(F)ccc2cc(N)cc(-c3ncc4c(N5CCOC[C@H]6[C@H](F)[C@H]65)nc(OC[C@]56CC(=C)CN5CCC65CC5)nc4c3F)c12 [Example 387, 6-fluoro-4-(8-fluoro-4-((1S,7S,8S)-8-fluoro-5-oxa-2-azabicyclo[5.1.0]octan-2-yl)-2-(((R)-6′-methylenetetrahydrospiro[cyclopropane-1,1′-pyrrolizin]-7a′(5′H)-yl)methoxy)pyrido[4,3-d]pyrimidin-7-yl)-5-(fluoromethoxy-d2)naphthalen-2-amine]
7 | < 50 nM | [2H]C1([2H])CC[C@@]2(C([2H])([2H])Oc3nc(N4CCOC[C@H]5[C@H](F)[C@H]54)c4cnc(-c5cc(N)cc6ccc(F)c(C#C)c56)c(F)c4n3)C[C@@]3(C[C@@H]3F)CN12 (single isomer, unassigned) [Example 275]
8 | < 50 nM | [2H]C([2H])(F)Oc1c(F)ccc2cccc(-c3ncc4c(N5CCOC[C@H]6[C@H](F)[C@H]65)nc(OC[C@@]56CCCN5C/C(=C\F)C6)nc4c3F)c12 [Example 157, (1S,7S,8S)-8-fluoro-2-(8-fluoro-7-(7-fluoro-8-(fluoromethoxy-d2)naphthalen-1-yl)-2-(((S,Z)-2-(fluoromethylene)tetrahydro-1H-pyrrolizin-7a(5H)-yl)methoxy)pyrido[4,3-d]pyrimidin-4-yl)-5-oxa-2-azabicyclo[5.1.0]octane]
9 | < 50 nM | [2H]C1([2H])CC[C@@]2(C([2H])([2H])Oc3nc(N4CCOC[C@H]5[C@H](F)[C@H]54)c4cnc(-c5cc(N)cc6ccc(F)c(C#C)c56)c(F)c4n3)C[C@@]3(C[C@H]3F)CN12 (single isomer, unassigned) [Example 274]
10 | < 50 nM | C#Cc1c(F)ccc2cccc(-c3ncc4c(N5CCCC[C@H]6[C@H](F)[C@H]65)nc(OC[C@]56C/C(=C/F)CN5CCC65CC5)nc4c3F)c12 [Example 402, (R,Z)-7a′-(((7-(8-Ethynyl-7-fluoronaphthalen-1-yl)-8-fluoro-4-((1S,7R,8S)-8-fluoro-2-azabicyclo[5.1.0]octan-2-yl)pyrido[4,3-d]pyrimidin-2-yl)oxy)methyl)-6′-(fluoromethylene)hexahydrospiro[cyclopropane-1,1′-pyrrolizine]]
11 | < 50 nM | [2H]C([2H])(Oc1nc(N2CCOC[C@H]3[C@H](F)[C@H]32)c2cnc(-c3cc(N)cc4ccc(F)c(C#C)c34)c(F)c2n1)[C@@]12CCCN1[C@@H](C)[C@H](F)C2 [Example 334, 5-ethynyl-6-fluoro-4-(8-fluoro-2-(((2R,3S,7aS)-2-fluoro-3-methyltetrahydro-1H-pyrrolizin-7a(5H)-yl)methoxy-d2)-4-((1S,7S,8S)-8-fluoro-5-oxa-2-azabicyclo[5.1.0]octan-2-yl)pyrido[4,3-d]pyrimidin-7-yl)naphthalen-2-amine]
12 | < 50 nM | [2H]C([2H])(F)Oc1c(F)ccc2cccc(-c3ncc4c(N5CCOC[C@H]6[C@H](F)[C@H]65)nc(OC[C@]56C/C(=C\F)CN5CCC65CC5)nc4c3F)c12 [Example 385, (1S,7S,8S)-8-fluoro-2-(8-fluoro-7-(7-fluoro-8-(fluoromethoxy-d2)naphthalen-1-yl)-2-(((R,E)-6′-(fluoromethylene)tetrahydrospiro[cyclopropane-1,1′-pyrrolizin]-7a′(5′H)-yl)methoxy)pyrido[4,3-d]pyrimidin-4-yl)-5-oxa-2-azabicyclo[5.1.0]octane]
13 | 50 to 500 nM | [2H]C([2H])(Oc1nc(N2CCOC[C@H]3[C@H](F)[C@H]32)c2cnc(-c3nc(N)cc4ccc(F)c(Cl)c34)c(F)c2n1)[C@@]12CCCN1C[C@H](F)C2 [Example 152, 8-chloro-7-fluoro-1-(8-fluoro-4-((1S,7S,8S)-8-fluoro-5-oxa-2-azabicyclo[5.1.0]octan-2-yl)-2-(((2R,7aS)-2-fluorotetrahydro-1H-pyrrolizin-7a(5H)-yl)methoxy-d2)pyrido[4,3-d]pyrimidin-7-yl)isoquinolin-3-amine]
14 | 500 to 10000 nM | [2H]C([2H])(Oc1nc(N2CCOC[C@H]3[C@H](F)[C@H]32)c2cnc(-c3cncc4ccc(F)c(Cl)c34)c(F)c2n1)[C@@]12CCCN1C[C@H](F)C2 [Example 113, (1S,7S,8S)-2-(7-(5-chloro-6-fluoroisoquinolin-4-yl)-8-fluoro-2-(((2R,7aS)-2-fluorotetrahydro-1H-pyrrolizin-7a(5H)-yl)methoxy-d2)pyrido[4,3-d]pyrimidin-4-yl)-8-fluoro-5-oxa-2-azabicyclo[5.1.0]octane]
15 | < 50 nM | C#Cc1c(F)ccc2cc(N)cc(-c3ncc4c(N5CCOC[C@H]6[C@H](F)[C@H]65)nc(OC[C@@]56CCCN5C[C@]5(CC5(F)F)C6)nc4c3F)c12 (single isomer, unassigned) [Example 210]
16 | < 50 nM | C#Cc1c(F)ccc2cccc(-c3ncc4c(N5CCOC[C@H]6[C@H](F)[C@H]65)nc(OC[C@]56C/C(=C/F)CN5CCC65CC5)nc4c3F)c12 [Example 376, (1S,7S,8S)-2-(7-(8-Ethynyl-7-fluoronaphthalen-1-yl)-8-fluoro-2-(((R,Z)-6′-(fluoromethylene)tetrahydrospiro[cyclopropane-1,1′-pyrrolizin]-7a′(5′H)-yl)methoxy)pyrido[4,3-d]pyrimidin-4-yl)-8-fluoro-5-oxa-2-azabicyclo[5.1.0]octane]
17 | 500 to 10000 nM | C#Cc1c(F)ccc2cccc(-c3ncc4c(N5CCOC[C@@H]6[C@@H](F)[C@@H]65)nc(OC[C@@]56CCCN5CC(=C(F)F)C6)nc4c3F)c12 [Example 103, (1R,7R,8R)-2-(2-(((S)-2-(difluoromethylene)tetrahydro-1H-pyrrolizin-7a(5H)-yl)methoxy)-7-(8-ethynyl-7-fluoronaphthalen-1-yl)-8-fluoropyrido[4,3-d]pyrimidin-4-yl)-8-fluoro-5-oxa-2-azabicyclo[5.1.0]octane]

Same assay, conditions: Homo sapiens, NCI-H441, pERK HTRF, NCI-H441 cells (KRAS G12V)

Row | IC50 | Compound
18 | < 50 nM | [2H]C([2H])(Oc1nc(N2CCCCC[C@H]3[C@H](F)[C@H]32)c2cnc(-c3cc(N)cc4cc(F)c(F)c(C#C)c34)c(F)c2n1)[C@@]12CCCN1C[C@H](F)C2 [Example 60, 5-Ethynyl-6,7-difluoro-4-(8-fluoro-4-((1S,8R,9S)-9-fluoro-2-azabicyclo[6.1.0]nonan-2-yl)-2-(((2R,7aS)-2-fluorotetrahydro-1H-pyrrolizin-7a(5H)-yl)methoxy-d2)pyrido[4,3-d]pyrimidin-7-yl)naphthalen-2-amine]

Same assay, conditions: cellular pERK (Thr202/Tyr204) HTRF, NCI-H441 cells

Row | IC50 | Compound
19 | < 50 nM | [2H]C([2H])(Oc1nc(N2CCOC[C@H]3[C@H](F)[C@H]32)c2cc(C(F)(F)F)c(-c3ccc(F)c4sc(N)c(C#N)c34)c(F)c2n1)[C@@]12CCCN1C[C@H](F)C2 (atropisomer, axis not shown; (aS)) [Example 390, 2-amino-7-fluoro-4-((R)-8-fluoro-4-((1S,7S,8S)-8-fluoro-5-oxa-2-azabicyclo[5.1.0]octan-2-yl)-2-(((2R,7aS)-2-fluorotetrahydro-1H-pyrrolizin-7a(5H)-yl)methoxy-d2)-6-(trifluoromethyl)quinazolin-7-yl)benzo[b]thiophene-3-carbonitrile]
